{"source": "patent EP2433624B1", "about": "“Use of buparvaquone for controlling mites parasitising honeybees” (Bimeda International Pharmaceuticals Limited, priority 2010, dated 2012)", "key": {"honeybee larvae [1]": {"test_system": "honeybee larvae", "assay": "Toxicity of BPQ A in an aqueous solution when sprayed on honeybee larvae", "format": "in vivo, Apis mellifera", "conditions": "summary statement", "experimental": "Example 3 - Toxicity of BPQ A in an aqueous solution when sprayed on honeybee larvae (50mL liquid at a concentration of 50mg/mL - BPQ A)\nTo spray eggs/larvae with different concentrations of the active ingredient/solvent and examine the effect on development of the young larvae\nEggs/larvae of similar age were attained by placing the queen bee in a frame cage for 36 hrs. Once the frame was laid up, the queen was released and the frame was replaced in the colony for 3 days. The frame cage allowed worker bees to attend the larvae, but prevented the queen from laying in the frame. On day 3/4, when the eggs were changing to larvae, the frame was removed and divided temporarily in 6 x 5cm strips at either side using grease proof paper to facilitate the assessment of product and solvent. Within each strip, three 3.5cm x 2.5cm squares (approximately 30 cells) of grease proof paper was removed and the developing larvae sprayed with BPQ A/solvent at the concentrations described above."}, "honeybee larvae [2]": {"test_system": "honeybee larvae", "assay": "Toxicity of BPQ B to honeybee larvae when fed treated syrup", "format": "in vivo, Apis mellifera", "conditions": "colony fed treated syrup", "text": "To measure the effect of treatment on developing larvae when fed syrup treated with BPQ powder, BPQ B, dissolved in the solvent (N-methyl pyrollidone) and diluted in an aqueous solution.\nApidae boxes were used to raise young queens and when virgin queens started to lay an area 6cm x 3cm were marked and missing cells were noted. The miniature colony was fed treated syrup, which was made by dissolving BPQ B powder in solvent, followed by serial dilutions using a sucrose solution (2 parts sugar: 1 part water). The concentrations administered are given below. Two replicates were carried out for the product, while 1 colony (apidae) was used for each of the solvent concentrations."}, "Varroa mites [3]": {"test_system": "Varroa mites", "assay": "Toxicity to Varroa mites submerged in 3µL liquid in eppendorf tubes", "format": "in vivo", "conditions": "for mean number of live mites: day 3, 10 mites per tube", "experimental": "Example 5 - Toxicity of BPQ A to Varroa mites\nTo assess the toxicity of BPQ to the Varroa mite\nVarroa mites only feed on haemolymph of larvae and adult bees and thus would not ingest BPQ in a syrup/water solution. Therefore, it was necessary to identify a volume sufficient to permeate through the cuticle, but not drown the mites. After preliminary investigation it was concluded that 3µL/10 mites/eppendorf tube gave the maximum viability and the latter was used for this trial.\nA total of 3µL of BPQ A/solvent was pipetted into each eppendorf tube. Ten mites taken from purple eye drone pupae were submerged in the liquid by tapping the tube gently and a fresh pupa was placed in each tube. 20 pinholes were made in each of the tubes and all samples were placed in the incubator at 30°C. Three replicates were made for each concentration and water was used in the control group. Concentrations of BPQ A and solvent were as described above (Section 1.1). The number of damaged or dead mites was counted on a daily basis. Damaged mites were mites that would not move in a coordinated fashion when touched gently 3 times with a fine brush."}, "Varroa mites [4]": {"test_system": "Varroa mites", "assay": "Efficacy of BPQ B against Varroa mites on honeybees sprayed with an aqueous solution", "format": "in vivo", "conditions": "summary statement", "experimental": "(§1) Example 7 - Toxicity of BPQ B to Varroa mites on honeybees when sprayed with an aqueous solution of the active ingredient\nTo estimate the percentage efficacy of BPQ B at different concentrations when sprayed as an aqueous solution onto adult bees\n(§2) A total of 20 newly emerged Varroa infested bees were placed in hoarding cages. The cages were prepared as described in Section 1.0, except that the air vents were reduced in size using parafilm to prevent the Varroa mites escaping during the test period. The mean(±se) number of mites per 20 bees was estimated prior to commencement and an additional 10 mites per cage were added. Mites were collected and introduced as described above. The treatment solution was made by dissolving BPQ B in solvent, followed by two aqueous serial dilutions producing a concentration of 500µg/mL and 5µg/mL. From the latter, further serial dilutions were carried in water producing the following concentrations: • 0.5µg/mL. (C1-C3) • 0.05µg/mL. (D1-D3) • 0.005µg/mL. (E1-E3) • 0.0005µg/mL. (F1-F3) • 0.00005µg/mL (G1-G3)\n(§3) Three replicates were established at each concentration plus a control group which were sprayed with water only. All test groups were fed 10mL of 1:1 sucrose:water solution and placed in the incubator at 32°C and monitored on a daily basis for the number of mites and number of bees knocked down. At the end of five day treatment period, the percentage efficacy of the treatment was estimated by treating bees in all cages with Apistan. % efficacy = mites knocked from treatment/total mites (treatment+Apistan)*100 [formula]"}, "honeybees": {"test_system": "honeybees", "assay": "Survival of bees sprayed with aqueous solutions of BPQ", "format": "in vivo, Apis mellifera", "conditions": "20 bees per cage", "experimental": "as §1, §2, §3"}, "mammals": {"test_system": "mammals", "conditions": "dosages many thousands of times higher than those in the invention; cited from earlier work"}, "[5]": {"conditions": "0.00005µg/mL (g1-g3) aqueous solution sprayed"}, "[6]": {"conditions": "0.0005µg/mL (f1-f3) aqueous solution sprayed"}, "[7]": {"conditions": "0.005µg/mL (e1-e3) aqueous solution sprayed"}, "[8]": {"conditions": "0.05µg/mL (d1-d3) aqueous solution sprayed"}, "[9]": {"conditions": "0.5µg/mL (c1-c3) aqueous solution sprayed"}}, "note": "Values joined by “and” are separate entries in the source; they are usually repeats but may differ in a detail not shown here. Equal values may be shown once.", "data": [{"compound": "CC(C)(C)[C@H]1CC[C@H](CC2=C(O)C(=O)c3ccccc3C2=O)CC1", "note": "[BPQ, buparvaquone]", "values": [{"measurement": "toxicity to bee larvae", "setting": "honeybee larvae [1]", "value": "non-toxic"}, {"measurement": "development of developing larvae", "setting": "honeybee larvae [2]", "value": "no negative effects"}, {"measurement": "mean number of live mites", "setting": "Varroa mites [3]; 0.00005µg/mL (g)", "value": "8.66±1.73"}, {"measurement": "mean number of live mites", "setting": "Varroa mites [3]; 0.0005µg/mL (f)", "value": "7.66±1.33"}, {"measurement": "mean number of live mites", "setting": "Varroa mites [3]; 0.5µg/mL", "value": "3.33±2.4"}, {"measurement": "toxicity to free living Varroa mites", "setting": "Varroa mites [3]; summary statement", "value": "highly toxic"}, {"measurement": "effective, topical application", "setting": "Varroa mites [4]", "value": "~40", "unit": "%"}, {"measurement": "Bees remaining", "setting": "honeybees; [5]", "value": "18 and 17 and 20"}, {"measurement": "Survival rate on bees, Day 1", "setting": "honeybees; [5]", "value": 20}, {"measurement": "Survival rate on bees, Day 2", "setting": "honeybees; [5]", "value": "19 and 20"}, {"measurement": "Survival rate on bees, Day 3", "setting": "honeybees; [5]", "value": "19 and 17 and 20"}, {"measurement": "Survival rate on bees, Day 4", "setting": "honeybees; [5]", "value": "19 and 17 and 20"}, {"measurement": "Survival rate on bees, Day 5", "setting": "honeybees; [5]", "value": "19 and 17 and 20"}, {"measurement": "Survival rate on bees, Day 6", "setting": "honeybees; [5]", "value": "18 and 17 and 20"}, {"measurement": "Bees remaining", "setting": "honeybees; [6]", "value": "20 and 19 and 18"}, {"measurement": "Survival rate on bees, Day 1", "setting": "honeybees; [6]", "value": 20}, {"measurement": "Survival rate on bees, Day 2", "setting": "honeybees; [6]", "value": "20 and 19 and 18"}, {"measurement": "Survival rate on bees, Day 3", "setting": "honeybees; [6]", "value": "20 and 19 and 18"}, {"measurement": "Survival rate on bees, Day 4", "setting": "honeybees; [6]", "value": "20 and 19 and 18"}, {"measurement": "Survival rate on bees, Day 5", "setting": "honeybees; [6]", "value": "20 and 19 and 18"}, {"measurement": "Survival rate on bees, Day 6", "setting": "honeybees; [6]", "value": "20 and 19 and 18"}, {"measurement": "Bees remaining", "setting": "honeybees; [7]", "value": "19 and 20"}, {"measurement": "Survival rate on bees, Day 1", "setting": "honeybees; [7]", "value": 20}, {"measurement": "Survival rate on bees, Day 2", "setting": "honeybees; [7]", "value": 20}, {"measurement": "Survival rate on bees, Day 3", "setting": "honeybees; [7]", "value": "19 and 20"}, {"measurement": "Survival rate on bees, Day 4", "setting": "honeybees; [7]", "value": "19 and 20"}, {"measurement": "Survival rate on bees, Day 5", "setting": "honeybees; [7]", "value": "19 and 20"}, {"measurement": "Survival rate on bees, Day 6", "setting": "honeybees; [7]", "value": "19 and 20"}, {"measurement": "Bees remaining", "setting": "honeybees; [8]", "value": "20 and 19"}, {"measurement": "Survival rate on bees, Day 1", "setting": "honeybees; [8]", "value": 20}, {"measurement": "Survival rate on bees, Day 2", "setting": "honeybees; [8]", "value": "20 and 19"}, {"measurement": "Survival rate on bees, Day 3", "setting": "honeybees; [8]", "value": "20 and 19"}, {"measurement": "Survival rate on bees, Day 4", "setting": "honeybees; [8]", "value": "20 and 19"}, {"measurement": "Survival rate on bees, Day 5", "setting": "honeybees; [8]", "value": "20 and 19"}, {"measurement": "Survival rate on bees, Day 6", "setting": "honeybees; [8]", "value": "20 and 19"}, {"measurement": "Bees remaining", "setting": "honeybees; [9]", "value": "19 and 20"}, {"measurement": "Survival rate on bees, Day 1", "setting": "honeybees; [9]", "value": 20}, {"measurement": "Survival rate on bees, Day 2", "setting": "honeybees; [9]", "value": "20 and 19"}, {"measurement": "Survival rate on bees, Day 3", "setting": "honeybees; [9]", "value": "20 and 19"}, {"measurement": "Survival rate on bees, Day 4", "setting": "honeybees; [9]", "value": "19 and 20"}, {"measurement": "Survival rate on bees, Day 5", "setting": "honeybees; [9]", "value": "19 and 20"}, {"measurement": "Survival rate on bees, Day 6", "setting": "honeybees; [9]", "value": "19 and 20"}, {"measurement": "neurotoxic effect", "setting": "mammals", "value": "no neurotoxic effect whatsoever"}]}]}
